This is an account of results in patent US20220135942A1, “CULTURED TISSUE AND METHOD FOR PRODUCING SAME” (NAGASAKI UNIVERSITY, priority 2019, published 2022).

The structures appear in SMILES notation.

In data set [1] the test system is bile ducts formed from rCLiPs only. The data set is described as follows: CLF added to rCLiP bile ducts only, without primary hepatocytes (negative control, Example 1). It is filed as in vitro ADME, rat. The following applies: no hepatocytes, 2 hours after CLF addition, FIG. 3B. As for the experimental part: The appearance 2 hours after the addition of the CLF solution was observed through the phase-contrast microscope and the fluorescence microscope (FIG. 3B).

The test system of data set [2] is bile ducts formed from the rCLiPs cocultured with rat primary hepatocytes. The data set is described as follows: CLF transfer to bile ducts in coculture of rCLiP bile ducts and rat primary hepatocytes. It is filed as in vitro ADME. Conditions: rat primary hepatocytes cocultured 3 days; observed 2, 24 and 72 hours after CLF addition; excitation 480 nm; FIG. 3A. From the text: (§1) It can be confirmed by various methods using labeled compounds that the glandular cavities and the ducts are functionally connected in the cultured tissue produced by the above-mentioned method. For example, a compound obtaining by labeling a compound the behavior of which in the glandular cavities and the ducts is known and which are objects to be confirmed can be used. The functional connection between the glandular cavities and the ducts can be specifically confirmed by confirming whether the labeled secretion or the analogue thereof is incorporated into the glandular cells, and the labeled secretion or the analogue thereof secreted from the glandular cells can be detected from the ducts. […] When CLF is incorporated into the hepatocytes cocultured with the bile ducts, and the fluorescence of CLF is detected from the bile ducts, it can be confirmed that CLF is secreted from the hepatocytes to the biliary canaliculi, and the secreted CLF moves to the bile ducts, namely that the biliary canaliculi and the bile ducts are functionally connected. […]
One day after the inoculation of the primary hepatocytes, the medium was exchanged for the BIM-2 medium. […] The appearances of the cells 2 hours, 24 hours, and 72 hours after the addition of the CLF solution were observed through a phase-contrast microscope and a fluorescence microscope (FIG. 3A). […]

Data set [3] has as its system bile ducts formed from rCLiPs only. Nature of the data set: CLF incubation of rCLiP bile ducts only, without human hepatocytes (negative control, Example 2). Conditions: no human hepatocytes, 30 min incubation in HBSS containing CLF, observed immediately, 4 and 24 hours after washing, FIG. 6B. It is filed as in vitro ADME, rat. The procedure: After the incubation, the cells were washed with MSS not containing CLF, and the appearances of the cells immediately, 4 hours, and 24 hours after the washing were observed through a phase-contrast microscope and a fluorescence microscope (FIG. 6B).

The test system of data set [4] is bile ducts formed from the rCLiPs cocultured with human hepatocytes. Nature of the data set: CLF transfer to bile ducts in coculture of rCLiP bile ducts and human hepatocytes. In kind it is in vitro ADME. The following applies: human hepatocytes cocultured 3 days; 30 min incubation in HBSS containing CLF; observed immediately, 4 and 24 hours after washing; excitation 470 nm; FIG. 6A.
Excerpt: as §1
One day after the inoculation of the human hepatocytes, the medium was exchanged for BIM-2 medium. […] After the incubation, the cells were washed with MSS not containing CLF, and the appearances of the cells immediately, 4 hours, and 24 hours after washing were observed through a phase-contrast microscope and a fluorescence microscope (FIG. 6A). […]

For the molecule `CC(CCC(=O)NC(CCCCNC(=S)Nc1ccc(-c2c3ccc(=O)cc-3oc3cc(O)ccc23)c(C(=O)O)c1)C(=O)O)C1CCC2C3C(O)CC4CC(O)CCC4(C)C3CC(O)C12C` (stereo not shown) [CLF, cholyl-lysyl-fluorescein], the “CLF fluorescence in bile ducts” value was “fluorescence was not, meanwhile, detected” in data set [1] and “fluorescence was not, meanwhile, detected” in data set [3]. Also, the “CLF fluorescence in bile ducts (secretion to biliary canaliculi and movement to bile ducts)” value in data set [2] and in data set [4] was “fluorescence was detected from the bile ducts” throughout.
